The source of these data is ChEMBL document CHEMBL1131388, “Synthesis and antitumor activity of 4-phenyl-1-arylsulfonyl imidazolidinones” (Bioorg Med Chem Lett, 1998).

The pIC50 is −log10 of the IC50, conventionally taken in molar units. Read a low pIC50 as a large IC50.

The test system of one assay is A549. Kind of assay: Cytotoxicity against human lung carcinoma A549 cell line using MTT assay. For orientation: Tetrazolium assays rely on reduction of a dye to a coloured formazan, in cell work by metabolically active cells.
The test system of the next assay is SK-OV-3. Kind of assay: Cytotoxicity against human ovarian adenocarcinoma (SK-OV-3) cell line using MTT assay. The class given is functional, cell-based.
The next assay relates to K562. Kind of assay: Cytotoxicity against human chronic myelogenous leukemia (K562) cell line using MTT assay. The class given is functional, cell-based.
The test system of assay [1] is SW-620. In words: Antitumor activity was evaluated against human colon carcinoma (SW620) as body weight change in human tumor xenograft mice upon peroral administration at a dose of 65 mg/kg. The class given is functional. As to conditions: route oral. For orientation: In xenograft studies the graft and the host belong to different species.
Assay [2] concerns NCI-H23. In words: Antitumor activity was evaluated against human lung carcinoma (NCI-H23) as tumor growth inhibition in human tumor xenograft mice upon peroral administration at a dose of 65 mg/kg. The class given is functional. The note with it: Mus musculus, route oral, read-out: TGI.
Assay [3] deals with SW-620. Kind of assay: Antitumor activity was evaluated against human colon carcinoma (SW620) as tumor growth inhibition in human tumor xenograft mice upon peroral administration at a dose of 65 mg/kg. The class given is functional. The note with it: Mus musculus, route oral, read-out: TGI.
The nature of assay [4]: Antitumor activity was evaluated against Lewis lung carcinoma as tumor growth inhibition was determined in BDF1 mice upon peroral administration at a dose of 100 mg/kg. The class given is functional. As to conditions: Mus musculus, route oral, read-out: TGI.
Assay [5] deals with NCI-H23. Kind of assay: Antitumor activity was evaluated against human lung carcinoma (NCI-H23) as body weight change in human tumor xenograft mice upon peroral administration at a dose of 65 mg/kg. The class given is functional. As to conditions: route oral.
The test system of assay [6] is Colon 26. Kind of assay: Antitumor activity was evaluated against murine colon carcinoma (Colon26) as body weight change in BALB/c mice upon peroral administration at a dose of 65 mg/kg. It counts as functional, Mus musculus. The note with it: route oral.
Assay [7] concerns Colon 26. Kind of assay: Antitumor activity was evaluated against murine colon carcinoma (Colon26) as tumor growth inhibition was determined in BALB/c mice upon peroral administration at a dose of 65 mg/kg. It counts as functional. The note with it: Mus musculus, route oral, read-out: TGI.
Assay [8] is described as follows: Antitumor activity was evaluated against Lewis lung carcinoma as body weight change in BDF1 mice upon peroral administration at a dose of 100 mg/kg. The class given is functional, Mus musculus. As to conditions: route oral.
The test system of assay [9] is Colon 26. Kind of assay: Antitumor activity was evaluated against murine colon carcinoma (Colon26) as body weight change in BALB/c mice upon intraperitoneal administration at a dose of 4 mg/kg. It counts as functional, Mus musculus.
Assay [10] has as its system SW-620. In words: Antitumor activity was evaluated against human colon carcinoma (SW620) as tumor growth inhibition in human tumor xenograft mice upon intraperitoneal administration at doses of 1,2,3mg/kg. It counts as functional.
For assay [11], the system named is Colon 26. Kind of assay: Antitumor activity was evaluated against murine colon carcinoma (Colon26) as tumor growth inhibition was determined in BALB/c mice upon intraperitoneal administration at a dose of 4 mg/kg. The class given is functional, Mus musculus.
Assay [12] can be described thus: Antitumor activity was evaluated against Lewis lung carcinoma as tumor growth inhibition was determined in BDF1 mice upon intraperitoneal administration at a dose of 4 mg/kg. The class given is functional, Mus musculus.
The nature of assay [13]: Antitumor activity was evaluated against Lewis lung carcinoma as body weight change in BDF1 mice upon intraperitoneal administration at a dose of 4 mg/kg. The class given is functional, Mus musculus.
Assay [14] deals with NCI-H23. Kind of assay: Antitumor activity was evaluated against human lung carcinoma (NCI-H23) as tumor growth inhibition in human tumor xenograft mice upon intraperitoneal administration at doses of 1,2,3mg/kg. The class given is functional.
Assay [15] concerns SW-620. In words: Antitumor activity was evaluated against human colon carcinoma (SW620) as body weight change in human tumor xenograft mice upon intraperitoneal administration at doses of 1,2,3mg/kg. It counts as functional.
Assay [16] concerns NCI-H23. Kind of assay: Antitumor activity was evaluated against human lung carcinoma (NCI-H23) as body weight change in human tumor xenograft mice upon intraperitoneal administration at doses of 1,2,3mg/kg. The class given is functional.

pIC50: −log10 of the molar value.

Turning to `O=C1NC(c2ccccc2)CN1S(=O)(=O)c1ccc2c(c1)CCC2` (stereo not drawn), the pIC50 in the assay on A549 is 5.32; in the assay on SK-OV-3 it was 4.92; in the assay with K562, 4.37.

Turning to `O=C(c1ccc([N+](=O)[O-])cc1)N1CCc2cc(S(=O)(=O)N3CC(c4ccccc4)NC3=O)ccc21` (stereo not drawn), the results for the pIC50 with A549, with SK-OV-3 and in the assay with K562 were 5.46, 5.37 and 4.74, respectively.

`O=C(c1ccccc1)N1CCc2cc(S(=O)(=O)N3CC(c4ccccc4)NC3=O)ccc21` (stereo not drawn): the values for the pIC50 with A549, in the assay with SK-OV-3 and with K562 were 6.36, 6.25 and 5.39, respectively.

Take `Nc1ccc(C(=O)N2CCc3cc(S(=O)(=O)N4CC(c5ccccc5)NC4=O)ccc32)cc1` (stereo not drawn): the negative-log IC50 (pIC50) in the assay with A549 is 6.70; with SK-OV-3 it was 5.91; with K562, 6.36. Also, the Body weight change in the assay on SW-620 [1] was 1 g; in the assay on NCI-H23 [5], 0.6 g; in the assay on Colon 26 [6], 0.4 g; in assay [8] it was -1 g. The inhibition in vivo at 65 mg/kg with NCI-H23 [2] was determined as 67%; with SW-620 [3] it was 87%; with Colon 26 [7], 55.6%. The inhibition in vivo at 100 mg/kg in assay [4] is 84.3%.

In the case of `COc1cccc2c1C(=O)c1c(O)c3c(c(O)c1C2=O)C[C@@](O)(C(=O)CO)C[C@@H]3O[C@H]1C[C@H](N)[C@H](O)[C@H](C)O1` [DOXORUBICIN], the pIC50 in the assay with SK-OV-3 was 5.38; in the assay with K562, 5.75. Moreover, the Body weight change in the assay on Colon 26 [9] is listed as 3 g; in assay [13], 2 g; with SW-620 [15], -2.6 g; in the assay with NCI-H23 [16], -2.6 g. The TCI in the assay on SW-620 [10] is recorded as 49%; with Colon 26 [11] it was 42.5%; in assay [12], 60.4%; in the assay with NCI-H23 [14] it was 39%.

As to `O=C(Nc1ccc(Cl)cc1)NS(=O)(=O)c1ccc2c(c1)CCC2` [SULOFENUR], the values for the pIC50 with A549, in the assay on SK-OV-3 and with K562 were 4.44, 3.65 and 4.30, respectively.
